Data: patent publication US20070275935A1, “Estratriene Derivatives” (priority 2003, published 2007)

What was measured:
[1] = test system: human breast tumour cell line, MCF7; assay: Proliferation of MCF7 cells in response to 5% FCS or EGF; assay type: cell-based; conditions: for effect on proliferation of MCF7 cells, in words (FIG. 3): 5% FCS or EGF 300 pM
Description: (§1) The effects of 4NO were evaluated in a number of non-smooth muscle cell types including the type II airway epithelial cell line, A549 (ATCC accession number ATCC CCL-185 Lung carcinoma human) (FIG. 2); the human breast tumour cell line, MCF7, (ATTC accession number ATCC HTB-22 breast adenocarcinoma, human) which expresses the estrogen receptor (FIG. 3); and in bovine aortic endothelial cells (BAEC) (FIG. 4).
(§2) The effects of test compounds were examined on proliferation of A549 cells in response to 5% fetal calf serum (FCS). Analogues were pre-incubated with A549 cells for 30 min before the addition of FCS. The incubation continued for 48 h before cell enumeration. Data are expressed as a percentage of the cell number in vehicle treated wells and are presented as the mean and standard error of the mean. Similarly the effects of 2MEO and 4NO on proliferation of MCF7 in response to 5% FCS or epidermal growth factor (EGF, 300 pM) were examined, as were the effects of 2MEO and 4NO on proliferation of BAEC in response to 5% FCS. The incubation parameters were the same as described above and results are presented as the mean and standard error of the mean.
This assay was also used to evaluate the ability of other compounds to inhibit the proliferation of non-smooth muscle cells MCF7 and A549 (described above) in response to 5% FCS. The results of this assay are presented in Table 4 (columns G and H respectively). The potency of the compounds was considerably less in inhibiting proliferation of these cell lines than it was for HASM. These observations support the contention that there are cell type-specific targets for the actions of these compounds. Such assays may also be adopted to examine the effect of other disclosed compounds on these cells or on other non-smooth muscle cells of interest.

[2] = test system: bovine aortic endothelial cells (BAEC); assay: Proliferation of bovine aortic endothelial cells in response to 5% FCS; assay type: cell-based
Description: as §1, §2

[3] = target: colchicine binding site on tubulin; assay: Colchicine displacement assay on partially purified tubulin; conditions: partially purified lamb brain tubulin, 1 μM 3H colchicine
Description: For the binding assays, a partial purification of tubulin was derived from the polymerization-depolymerization method of Williams and Lee (Williams et al., 1982). Three lamb brains (approximately 150 g total) were obtained approximately fifteen minutes after slaughter. Batches of 100g of brain were homogenized in 50 mL cold PM4M buffer (100 mM piperazine-N,N′-bis[2-ethane sulfonic acid] (PIPES), 1 mM MgSO4, 2 mM ethylene glycol tetra-acetate (EGTA), 2 mM DTT, 4 M glycerol, pH 6.9) using a domestic blender (Power Blender, Ronson) on the highest setting for 30 s. The crude homogenate was centrifuged for 15 mins (9000 rpm (6500×g), 4° C.) and the precipitate (cell debris, extracellular matrix and crude nuclear fraction) discarded. The 6500×g supernatant was then centrifuged for 75 mins (28 000 rpm (96 000×g), 4° C.) and the precipitate (consisting largely of cell membranes) was discarded.
The GTP (guanosine triphosphate) concentration of the 96 000×g supernatant was adjusted to 1 mM by the addition of an appropriate amount of a freshly prepared solution of 50 mM GTP in distilled water. […]
Reaction mixtures were incubated for 30 mins at 37° C. in a water bath, followed by cold stabilization on ice for 1 to 1.5 hours. […] 5 ml “Emulsifier Safe” scintillation fluid (Packard) was added to each tube, and the samples counted in a Packard 1600TR liquid scintillation analyzer.

[4] = test system: mice (C57BL/6) sensitised to ovalbumin; assay: Airway hyperresponsiveness to methacholine in ovalbumin-sensitised mice; assay type: in vivo; conditions: ovalbumin-challenged mice; for airway reactivity to intravenous methacholine (change in respiratory resistance) (FIG. 8): 50 mg/kg/day intraperitoneally; for airway reactivity to intravenous methacholine (change in respiratory resistance) (FIG. 9): 50 mg/kg/day orally
Description: Conscious female mice (C57BL/6) of 6-8 weeks of age were sensitised by a 0.2 ml intraperitoneal injection of 50 ug ovalbumin (in 10 mg/ml aluminium hydroxide) on day 0 and 12. and subsequently challenged with an aerosol of OVA (1% w/v)/FCS (5% v/v) on days 20-28 for 30 minutes. The aerosol exposures were achieved by placing the rodents in a whole body plethysmograph apparatus and then nebulising the […] into the chamber through a port located on the top of the chamber. The aerosol exited the chamber via a bias flow into a particle trap.
Drug treatments were administered to assess the effects of drugs on the development of airway hyperresponsiveness. Drug treatment commenced the day prior (day 19) to the first exposure to OVA (day 20) and continued throughout the period during which the mice were challenged with OVA. Drug treatment comprised 4NO or 2MEO, each at 50 mg/kg administered once daily 2h before OVA exposure to either intraperitoneally or orally in a vehicle of 10% DMSO/90% peanut oil in a volume of 100 μL.
After the 26-28 day sensitisation and challenge protocol, airway obstruction in response to the bronchoconstrictor methacholine was measured. The mice were anaesthetised with a mixture of ketamine/xylazine. A tracheostomy was performed, and a catheter placed in the jugular vein to administer methacholine intravenously. The mouse was then be placed in a whole body plethysmograph and mechanically ventilated (150 breaths/min at a tidal volume of 10 ml/kg). The transpulmonary pressure was measured with a differential pressure transducer with one port attached to the interior of the plethysmograph and the other to the intratracheal cannula. The airflow rate was measured with a pneumotachograph.
The change in airways resistance in response to intravenous methacholine (1-1000 μg/kg, given 4 minutes apart) was calculated on-line with a Buxco pulmonary mechanics analyzer.
The effects of treatment of ovalbumin-challenged mice (veh-OVA) with either 2MEO or 4NO, provided intraperitoneally at 50 mg/kg/day on airway reactivity to intravenously administered methacholine are shown in FIG. 8. Data are expressed as the change in respiratory resistance from the baseline level and are presented as the mean and standard error of the mean.
OVA challenge (veh-OVA) increased the airway reactivity to methacholine compared to that detected in non-challenged mice (veh-SAL).

Airway fibroblasts = assay: bFGF-induced proliferation of airway fibroblasts from airway biopsies; assay type: cell-based; conditions: 3 μM
From the text: Airway fibroblasts were also obtained by explant culture from airway biopsies.

HASM cells = assay: bFGF-induced HASM proliferation over 7 days on plastic or collagen-coated silastic, comparison with dexamethasone; assay type: cell-based, human; conditions: 1 μM, bFGF 300 pM
Description: We examined the effects of 4NO (1 μM) and the glucocorticoid dexamethasone (Dex, 100 nM) on the proliferation of HASM cells in response to bFGF (300 pM). Dexamethasone is a commonly used anti-inflammatory glucocorticoid. Cells were cultured on a standard plastic tissue culture plate. The test compounds were pre-incubated with HASM for 30 minutes before the addition of bFGF. The incubation continued for 7 days before cell enumeration (FIG. 5). Data are expressed as a percentage of the cell number in vehicle treated wells and are presented as the mean and standard error of the mean.
The response of HASM cells grown on a collagen extracellular matrix to the glucocorticoids and test compounds was also examined. Cells were cultured on a collagen-coated silastic base. HASM cells were pre-incubated with the test compounds for 30 minutes before the addition of bFGF (300 pM). The incubation continued for 7 days before cell enumeration (FIG. 6). Data are expressed as a percentage of the cell number in vehicle treated wells and are presented as the mean and standard error of the mean.

cyclin D1 = assay: Thrombin-mediated cyclin D1 protein expression in HASM (Western blotting); assay type: cell-based, human; conditions: 0.01 μM-1 μM pre-incubation; thrombin 0.3 U/ml, 8 h
Description: Human airway smooth muscle cells were cultured as described above in the proliferation experiments. Cells were serum-deprived for 24 h and stimulated with thrombin (0.3 U/ml) for 8h before harvest of protein for Western Blotting of cyclin D1.

Structure (SMILES)	effect on proliferation of MCF7 cells, in words (FIG. 3) ([1]; concentration not given)	MCF7 pIC50 ([1]; proliferation in response to 5% FCS, pIC50 of 4.00 = inactive)	effect on proliferation of BAEC, in words (FIG. 4) ([2]; concentration not given)	Tubulin affinity (pIC50 ^3H-colchicine displacement) [3]	airway reactivity to intravenous methacholine (change in respiratory resistance) (FIG. 8) [4]	airway reactivity to intravenous methacholine (change in respiratory resistance) (FIG. 9) [4]	reduction of bFGF (300 pM) induced proliferation (Airway fibroblasts)	effect on proliferation of MCF7 cells, in words (FIG. 3) ([1]; concentrations below 3 μM)	effect on proliferation of BAEC, in words (FIG. 4) ([2]; concentrations below 3 μM)	effect on bFGF-induced HASM proliferation on collagen (FIG. 6) (HASM cells; collagen-coated silastic)	effect on bFGF-induced HASM proliferation on plastic (FIG. 5) (HASM cells; plastic tissue culture plate)	cyclin D1 protein levels (cyclin D1)
COc1cc2c(cc1O)CC[C@@H]1[C@@H]2CC[C@]2(C)[C@@H](O)CC[C@@H]12 [2-methoxyestradiol, reference compound]	effective inhibitor	5.40	effective inhibitor	4.8	able to reduce the increase in respiratory resistance	able to reduce the increase in respiratory resistance						
COc1cc2c(cc1O)C(=NOCc1ccc([N+](=O)[O-])cc1)C[C@@H]1[C@@H]2CC[C@]2(C)C(=NO)CC[C@@H]12 [CP-DM-3-91, 2-methoxy-6-(4-nitrobenzyloxy)iminoestrone-17-oxime]							50±24%					
COc1cc2c(cc1O)C(=NOCc1ccc([N+](=O)[O-])cc1)C[C@@H]1[C@@H]2CC[C@]2(C)[C@@H](O)CC[C@@H]12 [CP-DM-2-11-7, 2-methoxy-6-(4-nitrobenzyloxy)iminoestradiol]				<4.0	able to reduce the increase in respiratory resistance	able to reduce the increase in respiratory resistance	55±20%	no detectable effect	no detectable effect	retained its effectiveness as an anti-proliferative agent	markedly reduced the increase in HASM cell number to levels below that of dexamethasone	concentration-dependent reduction in the cyclin D1 protein levels
